Patent US20210045385A1, “PYRIDAZINONE-SUBSTITUTED KETOXIMES AS HERBICIDES” (FMC Corporation, priority 2018, published 2021)

Tests used:
Assay type in all cases: in vivo
[1] = system: barnyardgrass (Echinochloa crus-galli); assay: Test C preemergence, visual plant response rating; details: 1000 g ai/ha
Text: (§1) Seeds of plant species selected from barnyardgrass (Echinochloa crus-galli), kochia (Bassia scoparia), ragweed (common ragweed, Ambrosia artemisiifolia), Italian ryegrass (Lolium mutiflorum), foxtail, giant (giant foxtail, Setaria faberi), foxtail, green (green foxtail, Setaria viridis), and pigweed (Amaranthus retroflexus) were planted into a blend of loam soil and sand and treated preemergence with a directed soil spray using test chemicals formulated in anon-phytotoxic solvent mixture which included a surfactant.
(§2) At the same time, plants selected from these weed species and also wheat (Triticum aestivum), corn (Zea mays), blackgrass (Alopecurus myosuroides), and galium (catchweed bedstraw, Galium aparine) were planted in pots containing the same blend of loam soil and sand and treated with post emergence applications of test chemicals formulated in the same manner. Plants ranged in height from 2 to 10 cm and were in the one- to two-leaf stage for the postemergence treatment. Treated plants and untreated controls were maintained in a greenhouse for approximately 10 d, after which time all treated plants were compared to untreated controls and visually evaluated for injury. Plant response ratings, summarized in Table C, are based on a 0 to 100 scale where 0 is no effect and 100 is complete control. A dash (-)response means no test result.

[2] = system: Italian ryegrass (Lolium mutiflorum); assay: Test C preemergence, visual plant response rating; details: 1000 g ai/ha
Text: as §1, §2

[3] = system: pigweed (Amaranthus retroflexus); assay: Test C preemergence, visual plant response rating; details: 1000 g ai/ha
Text: as §1, §2

kochia (Bassia scoparia) [4] = assay: Test C preemergence, visual plant response rating; details: 1000 g ai/ha
Text: as §1, §2

[5] = system: ragweed (common ragweed, Ambrosia artemisiifolia); assay: Test C preemergence, visual plant response rating; details: 1000 g ai/ha
Text: as §1, §2

[6] = system: foxtail, giant (giant foxtail, Setaria faberi); assay: Test C preemergence, visual plant response rating; details: 1000 g ai/ha
Text: as §1, §2

[7] = system: galium (catchweed bedstraw, Galium aparine); assay: Test C postemergence, visual plant response rating; details: Test C, postemergence, 1000 g ai/ha
Text: as §1, §2

[8] = system: barnyardgrass (Echinochloa crus-galli); assay: Test C postemergence, visual plant response rating; details: Test C, postemergence, 1000 g ai/ha
Text: as §1, §2

[9] = system: wheat (Triticum aestivum); assay: Test C postemergence, visual plant response rating; details: Test C, postemergence, 1000 g ai/ha
Text: as §1, §2

[10] = system: Italian ryegrass (Lolium mutiflorum); assay: Test C postemergence, visual plant response rating; details: Test C, postemergence, 1000 g ai/ha
Text: as §1, §2

[11] = system: blackgrass (Alopecurus myosuroides); assay: Test C postemergence, visual plant response rating; details: Test C, postemergence, 1000 g ai/ha
Text: as §1, §2

[12] = system: pigweed (Amaranthus retroflexus); assay: Test C postemergence, visual plant response rating; details: Test C, postemergence, 1000 g ai/ha
Text: as §1, §2

kochia (Bassia scoparia) [13] = assay: Test C postemergence, visual plant response rating; details: Test C, postemergence, 1000 g ai/ha
Text: as §1, §2

corn (Zea mays) = assay: Test C postemergence, visual plant response rating; details: Test C, postemergence, 1000 g ai/ha
Text: as §1, §2

[14] = system: ragweed (common ragweed, Ambrosia artemisiifolia); assay: Test C postemergence, visual plant response rating; details: Test C, postemergence, 1000 g ai/ha
Text: as §1, §2

[15] = system: foxtail, giant (giant foxtail, Setaria faberi); assay: Test C postemergence, visual plant response rating; details: Test C, postemergence, 1000 g ai/ha
Text: as §1, §2

SMILES | Barnyardgrass plant response rating (0 to 100 scale) [1] | Ryegrass, Italian plant response rating (0 to 100 scale) [2] | Pigweed plant response rating (0 to 100 scale) [3] | Kochia plant response rating (0 to 100 scale) (kochia (Bassia scoparia) [4]) | Ragweed plant response rating (0 to 100 scale) [5] | Foxtail, Giant plant response rating (0 to 100 scale) [6] | Galium plant response rating (0 to 100 scale) [7] | Barnyardgrass plant response rating (0 to 100 scale) [8] | Wheat plant response rating (0 to 100 scale) [9] | Ryegrass, Italian plant response rating (0 to 100 scale) [10] | Blackgrass plant response rating (0 to 100 scale) [11] | Pigweed plant response rating (0 to 100 scale) [12] | Kochia plant response rating (0 to 100 scale) (kochia (Bassia scoparia) [13]) | Corn plant response rating (0 to 100 scale) (corn (Zea mays)) | Ragweed plant response rating (0 to 100 scale) [14] | Foxtail, Giant plant response rating (0 to 100 scale) [15]
CC(C)O/N=C(/c1c(O)cnn(C)c1=O)c1cccc2ccccc12 [Compound 223] | 0 | 0 | 100 | 0 | 20 | 0 | 90 | 20 | 0 | 0 | 0 | 40 | 0 | 0 | 50 | 30
CCO/N=C(\c1c(O)cnn(C)c1=O)c1cccc2ccccc12 [Compound 224] | 10 | 0 | 100 | 20 | 70 | 80 | 90 | 10 | 0 | 0 | 10 | 50 | 0 | 0 | 50 | 50
